{"source": "paper PMC5442318", "about": "“Hundreds of dual-stage antimalarial molecules discovered by a functional gametocyte screen” (Nature Communications, 2017)", "key": {"[1]": {"system": "P. falciparum stage V female gametocytes", "experiment": "P. falciparum female gametocyte activation assay (Pf FGAA), 24 h or 48 h preincubation, Pfs25 expression readout", "type": "cell-based, Plasmodium falciparum NF54", "details": "for Biological profile: Pf FGAA with 48 h, 24 h or post-activation addition, active = IC50 below 2 μM; for IC50 / pIC50: Plasmodium falciparum; for Pf FGAA classification: SLOW / FAST / GAMETE from activity at 48h, 24h, 0h incubation", "how_it_was_run": "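Purified stage V gametocytes from P. falciparum NF54 gametocyte cultures were exposed to compounds for 24 h or 48 h at 37 °C under 3% O2/5% CO2, then activated by temperature drop plus xanthurenic acid. Activated females were stained with Cy3-anti-Pfs25 (0.5 μg ml^−1) for 24 h at 26 °C and counted by high-content imaging; pIC50 by nonlinear regression.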"}, "[2]": {"system": "HepG2 cells", "experiment": "HepG2 cytotoxicity assay", "type": "cell-based", "how_it_was_run": "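After compound incubation, plates and CellTiter-Glo reagent were brought to room temperature for 30 min. The reagent was then added, and luminescence was read after a 10 min room-temperature stabilization.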"}, "[3]": {"system": "P. falciparum stages IV–V gametocytes", "experiment": "Gametocytocidal ATP-depletion assay (gametocyte ATP bioluminescence)", "type": "cell-based, Plasmodium falciparum", "details": "Plasmodium falciparum, mean", "how_it_was_run": "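Purified stage IV–V gametocytes (12,500/well) incubated with compound for 48 h at 37 °C under 3% O2/5% CO2. ATP measured by BacTiter-Glo luminescence as a viability surrogate; hits tested at 2 μM single concentration.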"}, "[4]": {"system": "P. falciparum asexual blood stages", "details": "ref 1 (Gamo, F. J. et al., Nature 465, 305-310, 2010), cited from earlier work; for pIC50: TCAMS asexual blood stage data, read-out: Pf Asexual blood stages XC50; for Pf Asexual stages XC50: TCAMS data"}, "[5]": {"system": "P. falciparum male gametocytes (exflagellation)", "experiment": "Exflagellation assay (male gametocytes)", "type": "cell-based, Plasmodium falciparum", "design": "Exflagellation Inhibition %: concentration or dose not given beside the values", "method": "Figure 5 Exflagellation inhibition by six TCAMS compounds. Stage V gametocyte cultures were exposed to 2 μM of TCMDC-141070 and 1 μM of the five remaining compounds for 48 h. The percentage inhibition was determined compared to DMSO-treated controls. Compounds were then progressed into SMFA to further determine the transmission blocking in mosquitoes. Each bar represents mean value of two (TCMDC-125345, TCMDC-141698, TCMDC-123767, TCMDC-141154) or three (TCMDC-141070, TCMDC-124559) independent replicates with s.d.\nExflagellation was measured as previously reported[24] with minor modifications. Using 5 ml of day-14 gametocyte cultures, parasites were incubated with the corresponding concentration for each compound in six-well plates at 37 °C (3% O2, 5% CO2 and 92% N2). After 48 h incubation, a 200 μl sample was spun down in a microfuge, the supernatant was carefully removed and the pellet resuspended in 15 μl of pre-warmed ookinete medium. Parasites were placed in Fast-Read disposable haemocytometer slides and, after 15 min at room temperature (22 °C), exflagellation centres per field were counted under × 10 objective."}, "[6]": {"details": "24h incubation time, read-out: Pf FGAA IC50 (µM) 24h"}, "[7]": {"details": "stage V gametocytes, 48 h exposure, read-out: PfFGAA IC50"}, "[8]": {"details": "HepG2 TOX50 versus Pf FGAA IC50"}, "[9]": {"details": "48 h exposure, 2 μM TCMDC-141070, 1 μM other compounds, vs DMSO, mean of 2-3 replicates"}}, "note": "pIC50: −log10 of the molar value. Where two headings read alike, the source gives them in different places.", "data": [{"smiles": "FC(F)(F)c1cnc(Sc2nnc(-c3ccncc3)o2)c(Cl)c1", "note": "[TCMDC-123767]", "values": [{"measurement": "Biological profile", "setting": "[1]", "value": "Slow-acting"}, {"measurement": "IC50", "setting": "[1]; [6]", "value": "> 20", "unit": "µM"}, {"measurement": "pIC50", "setting": "[1]; [7]", "value": 6.80}, {"measurement": "Pf FGAA classification", "setting": "[1]", "value": "SLOW"}, {"measurement": "Tox50", "setting": "[2]; HepG2, 48 h", "value": 100, "unit": "µM"}, {"measurement": "Selectivity ratio", "setting": "[2]; [8]", "value": ">625"}, {"measurement": "HepG2 cells TOX50", "setting": "[2]; HepG2 cells", "value": ">100", "unit": "µM"}, {"measurement": "HepG2 cells mean TOX50", "setting": "[2]; HepG2 cells; mean", "value": ">100", "unit": "µM"}, {"measurement": "inhibition at 2 µM", "setting": "[3]", "value": -5.49, "unit": "%"}, {"measurement": "pIC50", "setting": "[4]", "value": 6.57}, {"measurement": "Pf Asexual stages XC50", "setting": "[4]", "value": 270, "unit": "nM"}, {"measurement": "Inhibition of exflagellation (%)", "setting": "[5]; [9]", "value": 88, "unit": "%"}, {"measurement": "Exflagellation Inhibition %", "setting": "[5]; Expt 1", "value": 88, "unit": "%"}, {"measurement": "Exflagellation Inhibition %", "setting": "[5]; Expt 2", "value": 88, "unit": "%"}]}, {"smiles": "CC1Cc2ccccc2N1S(=O)(=O)c1cccc(C(=O)Nc2nc(-c3ccccn3)cs2)c1", "note": "(stereo not shown) [TCMDC-124559]", "values": [{"measurement": "Biological profile", "setting": "[1]", "value": "Fast-acting"}, {"measurement": "pIC50", "setting": "[1]; P. falciparum female gametocytes, mean, read-out: Gametocytes mean Pf FGAA IC50", "value": 6.47}, {"measurement": "pIC50", "setting": "[1]; [7]", "value": 6.30}, {"measurement": "Pf FGAA classification", "setting": "[1]", "value": "FAST"}, {"measurement": "Tox50", "setting": "[2]; HepG2, 48 h", "value": ">100", "unit": "µM"}, {"measurement": "Selectivity ratio", "setting": "[2]; [8]", "value": 146.27}, {"measurement": "HepG2 cells mean TOX50", "setting": "[2]; HepG2 cells; mean", "value": 50.12, "unit": "µM"}, {"measurement": "inhibition at 2 µM", "setting": "[3]", "value": 8.95, "unit": "%"}, {"measurement": "pIC50", "setting": "[4]", "value": 5.88}, {"measurement": "Pf Asexual stages XC50", "setting": "[4]", "value": 1320, "unit": "nM"}, {"measurement": "Inhibition of exflagellation (%)", "setting": "[5]; [9]", "value": 30, "unit": "%"}, {"measurement": "Exflagellation Inhibition %", "setting": "[5]; Expt 1", "value": 28, "unit": "%"}, {"measurement": "Exflagellation Inhibition %", "setting": "[5]; Expt 2", "value": 0, "unit": "%"}, {"measurement": "Exflagellation Inhibition %", "setting": "[5]; Expt 3", "value": 60, "unit": "%"}]}, {"smiles": "COc1cc(OC)cc(C(=O)Nc2nc(-c3ccccn3)cs2)c1", "note": "[TCMDC-125345]", "values": [{"measurement": "Biological profile", "setting": "[1]", "value": "Fast-acting"}, {"measurement": "IC50", "setting": "[1]; [6]", "value": 0.96, "unit": "µM"}, {"measurement": "pIC50", "setting": "[1]; [7]", "value": 6.44}, {"measurement": "Pf FGAA classification", "setting": "[1]", "value": "FAST"}, {"measurement": "Tox50", "setting": "[2]; HepG2, 48 h", "value": 39.82, "unit": "µM"}, {"measurement": "Selectivity ratio", "setting": "[2]; [8]", "value": 111.27}, {"measurement": "HepG2 cells mean TOX50", "setting": "[2]; HepG2 cells; mean", "value": 39.82, "unit": "µM"}, {"measurement": "inhibition at 2 µM", "setting": "[3]", "value": 39.5, "unit": "%"}, {"measurement": "pIC50", "setting": "[4]", "value": 6.25}, {"measurement": "Pf Asexual stages XC50", "setting": "[4]", "value": 560, "unit": "nM"}, {"measurement": "Inhibition of exflagellation (%)", "setting": "[5]; [9]", "value": 50, "unit": "%"}, {"measurement": "Exflagellation Inhibition %", "setting": "[5]; Expt 1", "value": 47, "unit": "%"}]}, {"smiles": "CC(C)(CNC(=O)[C@H]1CCCCN1)c1nc(-c2ccc(Cl)c(O)c2)c(-c2ccncc2)[nH]1", "note": "[TCMDC-141070]", "values": [{"measurement": "Biological profile", "setting": "[1]", "value": "Gamete-targeting"}, {"measurement": "IC50", "setting": "[1]; [6]", "value": 1.68, "unit": "µM"}, {"measurement": "pIC50", "setting": "[1]; [7]", "value": 6.28}, {"measurement": "Pf FGAA classification", "setting": "[1]", "value": "GAMETE"}, {"measurement": "Tox50", "setting": "[2]; HepG2, 48 h", "value": 28.96, "unit": "µM"}, {"measurement": "Selectivity ratio", "setting": "[2]; HepG2 TOX50 / Pf FGAA IC50", "value": 54.30}, {"measurement": "HepG2 cells mean TOX50", "setting": "[2]; mean; HepG2 cells", "value": 28.96, "unit": "µM"}, {"measurement": "inhibition at 2 µM", "setting": "[3]", "value": -0.73, "unit": "%"}, {"measurement": "pIC50", "setting": "[4]", "value": 6.14}, {"measurement": "Pf Asexual stages XC50", "setting": "[4]", "value": 730, "unit": "nM"}, {"measurement": "Exflagellation Inhibition %", "setting": "[5]; Expt 1", "value": 75, "unit": "%"}, {"measurement": "inhibition at 2 µM", "setting": "[5]; Plasmodium falciparum, 48 h exposure, 2 μM TCMDC-141070, 1 μM other compounds, vs DMSO, mean of 2-3 replicates", "value": 99, "unit": "%"}]}, {"smiles": "NCC1(c2nc(-c3ccc(Cl)c(O)c3)c(-c3ccncc3)[nH]2)CCCCC1", "note": "[TCMDC-141154]", "values": [{"measurement": "Biological profile", "setting": "[1]", "value": "Gamete-targeting"}, {"measurement": "IC50", "setting": "[1]; [6]", "value": 0.41, "unit": "µM"}, {"measurement": "pIC50", "setting": "[1]; [7]", "value": 6.68}, {"measurement": "Pf FGAA classification", "setting": "[1]", "value": "GAMETE"}, {"measurement": "Tox50", "setting": "[2]; HepG2, 48 h", "value": 11.9, "unit": "µM"}, {"measurement": "Selectivity ratio", "setting": "[2]; HepG2 TOX50 / Pf FGAA IC50", "value": 56.01}, {"measurement": "HepG2 cells mean TOX50", "setting": "[2]; mean; HepG2 cells", "value": 11.90, "unit": "µM"}, {"measurement": "inhibition at 2 µM", "setting": "[3]", "value": -10.5, "unit": "%"}, {"measurement": "pIC50", "setting": "[4]", "value": 6.13}, {"measurement": "Pf Asexual stages XC50", "setting": "[4]", "value": 530, "unit": "nM"}, {"measurement": "Inhibition of exflagellation (%)", "setting": "[5]; [9]", "value": 97, "unit": "%"}, {"measurement": "Exflagellation Inhibition %", "setting": "[5]; Expt 1", "value": 97, "unit": "%"}, {"measurement": "Exflagellation Inhibition %", "setting": "[5]; Expt 2", "value": 97, "unit": "%"}]}, {"smiles": "Cc1ccc(Cn2nc(Cl)c(N3CCNCC3)cc2=O)cc1NC(=O)Nc1ccc(-c2ccccc2)cc1", "note": "[TCMDC-141698]", "values": [{"measurement": "Biological profile", "setting": "[1]", "value": "Gamete-targeting"}, {"measurement": "IC50", "setting": "[1]; [6]", "value": 0.44, "unit": "µM"}, {"measurement": "IC50", "setting": "[1]; 48h incubation time, read-out: Pf FGAA IC50 (µM) 48h", "value": 0.44, "unit": "µM"}, {"measurement": "pIC50", "setting": "[1]; mean, P. falciparum female gametocyte activation assay, read-out: Gametocytes mean Pf FGAA IC50", "value": 6.36}, {"measurement": "pIC50", "setting": "[1]; [7]", "value": 6.36}, {"measurement": "Pf FGAA classification", "setting": "[1]", "value": "GAMETE"}, {"measurement": "Tox50", "setting": "[2]; HepG2, 48 h", "value": 4.79, "unit": "µM"}, {"measurement": "Selectivity ratio", "setting": "[2]; HepG2 TOX50 / Pf FGAA IC50", "value": 10.79}, {"measurement": "HepG2 cells mean TOX50", "setting": "[2]; mean; HepG2 cells", "value": 4.79, "unit": "µM"}, {"measurement": "inhibition at 2 µM", "setting": "[3]", "value": -7.4, "unit": "%"}, {"measurement": "pIC50", "setting": "[4]", "value": 6.17}, {"measurement": "Pf Asexual stages XC50", "setting": "[4]", "value": 670, "unit": "nM"}, {"measurement": "Inhibition of exflagellation (%)", "setting": "[5]; [9]", "value": 84, "unit": "%"}, {"measurement": "Exflagellation Inhibition %", "setting": "[5]; Expt 2", "value": 87, "unit": "%"}]}]}
